Experimental data: patent publication US20230129359A1, “MUSCARINIC RECEPTOR 4 ANTAGONISTS AND METHODS OF USE” (Neurocrine Biosciences, Inc., priority 2020, published 2023)
pKi: −log10 of the molar value.

Molecular target: T1, human M4 receptor (Homo sapiens, UniProt P08173)
T1 construct: expressed in transfected cells; host or cells: CHO cells
T1 sequence (P08173 1-479): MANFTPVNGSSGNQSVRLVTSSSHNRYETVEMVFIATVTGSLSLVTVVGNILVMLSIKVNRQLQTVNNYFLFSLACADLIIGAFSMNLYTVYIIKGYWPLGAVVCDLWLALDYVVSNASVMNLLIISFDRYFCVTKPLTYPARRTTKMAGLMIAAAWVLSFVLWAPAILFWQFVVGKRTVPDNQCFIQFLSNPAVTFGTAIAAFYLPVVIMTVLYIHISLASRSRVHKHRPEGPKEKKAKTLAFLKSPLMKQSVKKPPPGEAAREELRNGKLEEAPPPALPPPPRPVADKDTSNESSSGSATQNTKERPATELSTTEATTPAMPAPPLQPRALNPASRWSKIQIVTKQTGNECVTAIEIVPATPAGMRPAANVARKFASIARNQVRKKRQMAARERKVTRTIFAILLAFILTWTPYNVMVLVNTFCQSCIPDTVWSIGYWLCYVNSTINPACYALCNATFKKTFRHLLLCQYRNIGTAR
Experiment: Radioligand ([3H]N-methylscopolamine) binding assay, membranes from CHO cells expressing human M4 receptor
Details: Ki against human M4 receptor; membranes from CHO cells; tritiated N-methylscopolamine 1.5 nM; read-out: K
How it was run: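 Competition binding used CHO-cell membranes expressing human M4 with 1.5 nM [3H]N-methylscopolamine and twelve compound concentrations ([…]). Incubation was 90 minutes at 37 °C in 50 mM HEPES, 100 mM NaCl, 5 mM MgCl2, 1 mM EDTA, pH 7.4. Bound ligand was collected by filtration onto PEI-treated glass fibre for Ki.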

SMILES	pKi
C[C@@H]1CN(c2ncc(C(F)(F)F)cn2)CCN1C(=O)OC1CC2(C1)CN(Cc1ccc(F)cc1)C2 [Compound 457, 2-[(4-fluorophenyl)methyl]-2-azaspiro[3.3]heptan-6-yl (2R)-2-methyl-4-[5-(trifluoromethyl)pyrimidin-2-yl]piperazine-1-carboxylate]	6.00 to 7.00
C[C@@H]1CN(c2ncc(C(F)F)cn2)C[C@H](C)N1C(=O)OC1CC2(C1)CN(Cc1ccc(F)cc1)C2 [Compound 467, 2-[(4-fluorophenyl)methyl]-2-azaspiro[3.3]heptan-6-yl (2R,6S)-4-[5-(difluoromethyl)pyrimidin-2-yl]-2,6-dimethylpiperazine-1-carboxylate]	7.00 to 8.00
C[C@@H]1CN(c2ncc(F)cn2)C[C@H](C)N1C(=O)OC1CC2(C1)CN(Cc1ccc(F)cc1)C2 [Compound 468, 2-[(4-fluorophenyl)methyl]-2-azaspiro[3.3]heptan-6-yl (2R,6S)-4-(5-fluoropyrimidin-2-yl)-2,6-dimethylpiperazine-1-carboxylate]	7.00 to 8.00
CNC(=O)c1cnc(N2C[C@@H](C)N(C(=O)OC3CC4(C3)CN(Cc3ccccc3)C4)[C@@H](C)C2)nc1 [Compound 471, 2-benzyl-2-azaspiro[3.3]heptan-6-yl (2R,6S)-2,6-dimethyl-4-[5-(methylcarbamoyl)pyrimidin-2-yl]piperazine-1-carboxylate]	6.00 to 7.00
C[C@@H]1CN(c2ncc(C#N)cn2)C[C@H](C)N1C(=O)OC1CC2(C1)CN(Cc1ccc(F)cc1)C2 [Compound 472, 2-[(4-fluorophenyl)methyl]-2-azaspiro[3.3]heptan-6-yl (2R,6S)-4-(5-cyanopyrimidin-2-yl)-2,6-dimethylpiperazine-1-carboxylate]	7.00 to 8.00
C[C@@H]1CN(c2ncc(C#N)cn2)[C@@H](C)CN1C(=O)OC1CC2(C1)CN(Cc1ccc(F)cc1)C2 [Compound 473, 2-[(4-fluorophenyl)methyl]-2-azaspiro[3.3]heptan-6-yl (2R,5S)-4-(5-cyanopyrimidin-2-yl)-2,5-dimethylpiperazine-1-carboxylate]	7.00 to 8.00
C[C@@H]1CN(c2ncc(C#N)cn2)C[C@H](C)N1C(=O)OC1CC2(C1)CN(Cc1ccc(Cl)cc1)C2 [Compound 475, 2-[(4-chlorophenyl)methyl]-2-azaspiro[3.3]heptan-6-yl (2R,6S)-4-(5-cyanopyrimidin-2-yl)-2,6-dimethylpiperazine-1-carboxylate]	7.00 to 8.00
C[C@@H]1CN(c2ncc(C(F)(F)F)cn2)CCN1C(=O)OC1CC2(C1)CN(Cc1ccc(Cl)cc1)C2 [Compound 478, 2-[(4-chlorophenyl)methyl]-2-azaspiro[3.3]heptan-6-yl (2R)-2-methyl-4-[5-(trifluoromethyl)pyrimidin-2-yl]piperazine-1-carboxylate]	6.00 to 7.00
C[C@@H]1CN(c2cnc(C(F)(F)F)cn2)C[C@H](C)N1C(=O)OC1CC2(C1)CN(Cc1ccc(Cl)cc1)C2 [Compound 479, 2-[(4-chlorophenyl)methyl]-2-azaspiro[3.3]heptan-6-yl (2R,6S)-2,6-dimethyl-4-[5-(trifluoromethyl)pyrazin-2-yl]piperazine-1-carboxylate]	7.00 to 8.00

Further lines, results first:

pKi	SMILES
7.00 to 8.00	C[C@@H]1CN(c2nc3ccc(F)cc3o2)[C@@H](C)CN1C(=O)OC1CC2(C1)CN(Cc1ccccc1)C2 [Compound 446, 2-benzyl-2-azaspiro[3.3]heptan-6-yl (2R,5S)-4-(6-fluoro-1,3-benzoxazol-2-yl)-2,5-dimethylpiperazine-1-carboxylate]
> 8.00	C[C@@H]1CN(c2nc3cc(F)c(F)cc3s2)C[C@H](C)N1C(=O)OC1CC2(C1)CN(Cc1ccccc1)C2 [Compound 447, 2-benzyl-2-azaspiro[3.3]heptan-6-yl (2R,6S)-4-(5,6-difluoro-1,3-benzothiazol-2-yl)-2,6-dimethylpiperazine-1-carboxylate]
> 8.00	C[C@@H]1CN(c2nc3cc(F)c(F)cc3s2)[C@@H](C)CN1C(=O)OC1CC2(C1)CN(Cc1ccccc1)C2 [Compound 449, 2-benzyl-2-azaspiro[3.3]heptan-6-yl (2R,5S)-4-(5,6-difluoro-1,3-benzothiazol-2-yl)-2,56-dimethylpiperazine-1-carboxylate]
7.00 to 8.00	C[C@@H]1CN(c2ncc3cc(F)ccc3n2)C[C@H](C)N1C(=O)OC1CC2(C1)CN(Cc1ccccc1)C2 [Compound 453, 2-benzyl-2-azaspiro[3.3]heptan-6-yl (2R,6S)-4-(6-fluoroquinazolin-2-yl)-2,6-dimethylpiperazine-1-carboxylate]
7.00 to 8.00	C[C@@H]1CN(c2ncc(C(F)(F)F)cn2)C[C@H](C)N1C(=O)OC1CC2(C1)CN(Cc1ccc(F)cc1)C2 [Compound 455, 2-[(4-fluorophenyl)methyl]-2-azaspiro[3.3]heptan-6-yl (2R,6S)-2,6-dimethyl-4-[5-(trifluoromethyl)pyrimidin-2-yl]piperazine-1-carboxylate]
> 8.00	C[C@@H]1CN(c2ncc(C(F)(F)F)cn2)[C@@H](C)CN1C(=O)OC1CC2(C1)CN(Cc1ccc(F)cc1)C2 [Compound 456, 2-[(4-fluorophenyl)methyl]-2-azaspiro[3.3]heptan-6-yl (2R,5S)-2,5-dimethyl-4-[5-(trifluoromethyl)pyrimidin-2-yl]piperazine-1-carboxylate]
7.00 to 8.00	C[C@@H]1CN(c2cnc(C(F)(F)F)cn2)CCN1C(=O)OC1CC2(C1)CN(Cc1ccc(F)cc1)C2 [Compound 458, 2-[(4-fluorophenyl)methyl]-2-azaspiro[3.3]heptan-6-yl (2R)-2-methyl-4-[5-(trifluoromethyl)pyrazin-2-yl]piperazine-1-carboxylate]
> 8.00	C[C@@H]1CN(c2ncc(OC(F)F)cn2)C[C@H](C)N1C(=O)OC1CC2(C1)CN(Cc1ccccc1)C2 [Compound 462, 2-benzyl-2-azaspiro[3.3]heptan-6-yl (2R,6S)-4-[5-(difluoromethoxy)pyrimidin-2-yl]-2,6-dimethylpiperazine-1-carboxylate]
> 8.00	C[C@@H]1CN(c2ncc(C(F)(F)F)c(N)n2)C[C@H](C)N1C(=O)OC1CC2(C1)CN(Cc1ccccc1)C2 [Compound 463, 2-benzyl-2-azaspiro[3.3]heptan-6-yl (2R,6S)-4-[4-amino-5-(trifluoromethyl)pyrimidin-2-yl]-2,6-dimethylpiperazine-1-carboxylate]
7.00 to 8.00	C[C@@H]1CN(c2ncc(C(F)F)cn2)C[C@H](C)N1C(=O)OC1CC2(C1)CN(Cc1ccccc1)C2 [Compound 464, 2-benzyl-2-azaspiro[3.3]heptan-6-yl (2R,6S)-4-[5-(difluoromethyl)pyrimidin-2-yl]-2,6-dimethylpiperazine-1-carboxylate]
> 8.00	C[C@@H]1CN(c2ncc(OC(F)F)cn2)C[C@H](C)N1C(=O)OC1CC2(C1)CN(Cc1ccc(F)cc1)C2 [Compound 465, 2-[(4-fluorophenyl)methyl]-2-azaspiro[3.3]heptan-6-yl (2R,6S)-4-[5-(difluoromethoxy)pyrimidin-2-yl]-2,6-dimethylpiperazine-1-carboxylate]
> 8.00	C[C@@H]1CN(c2ncc(C(F)(F)F)c(N)n2)C[C@H](C)N1C(=O)OC1CC2(C1)CN(Cc1ccc(F)cc1)C2 [Compound 466, 2-[(4-fluorophenyl)methyl]-2-azaspiro[3.3]heptan-6-yl (2R,6S)-4-[4-amino-5 (trifluoromethyl)pyrimidin-2-yl]-2,6-dimethylpiperazine-1-carboxylate]
